# Laboratory results taken from patent US6284918A, “Selective inhibitors of prostaglandin endoperoxide synthase-2” (priority 1999, dated 2001).
# Read-outs that look alike come from different tables or passages of the source.
# Columns and labels:
# human PGHS-2 = biological target: T1, human PGHS-2 (Homo sapiens, UniProt P35354); experiment: Time- and concentration-dependent inhibition of human PGHS-2, TLC assay (3 h preincubation); assay type: biochemical; conditions: for IC50: PGHS-2 88 nM; for inhibition of PGHS-2 (in words): table footnotes; for IC50 (PGHS-1)/IC50 (PGHS-2): selectivity ratio, 180 min
# T1 construct: made in house; host or cells: insect cells (baculovirus vectors)
# T1 sequence (P35354 18-604): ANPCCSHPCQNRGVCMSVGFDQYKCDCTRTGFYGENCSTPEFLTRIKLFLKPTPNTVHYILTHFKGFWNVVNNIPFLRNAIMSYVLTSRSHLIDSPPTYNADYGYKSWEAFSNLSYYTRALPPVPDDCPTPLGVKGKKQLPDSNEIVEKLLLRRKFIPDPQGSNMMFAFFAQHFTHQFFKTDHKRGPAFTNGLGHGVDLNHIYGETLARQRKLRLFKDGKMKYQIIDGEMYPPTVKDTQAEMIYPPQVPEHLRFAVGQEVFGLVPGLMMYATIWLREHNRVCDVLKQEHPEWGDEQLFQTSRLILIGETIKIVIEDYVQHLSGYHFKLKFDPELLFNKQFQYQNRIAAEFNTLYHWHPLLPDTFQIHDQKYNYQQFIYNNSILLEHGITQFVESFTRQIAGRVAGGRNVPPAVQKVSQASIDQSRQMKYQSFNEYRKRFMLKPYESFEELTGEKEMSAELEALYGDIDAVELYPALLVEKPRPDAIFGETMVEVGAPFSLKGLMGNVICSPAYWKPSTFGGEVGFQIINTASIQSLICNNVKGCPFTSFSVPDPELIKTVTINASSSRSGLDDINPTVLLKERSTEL
# Method: (§1) Cyclooxygenase activity of ovine PGHS-1 (22 nM) or human PGHS-2 (88 nM) was assayed by TLC. Reaction mixtures of 200 μL consisted of hematin-reconstituted protein in 100 mM Tris-HCl, pH 8.0, 500 μM phenol, and [1-^14 C]arachidonic acid (50 μM, 57 mCi/mmol). For the time-dependent inhibition assay, hematin-reconstituted PGHS-1 (22 nM) or PGHS-2 (88 nM) was preincubated at room temperature for 2 hours and then at 0° C. for 1 hour with varying concentrations of inhibitor in DMSO followed by the addition of [1-^14 C]arachidonic acid (50 μM) for 30 seconds at 37° C. Reactions were terminated by solvent extraction in diethyl ether/methanol/1 M citrate, pH 4.0 (30:4:1). The organic phase was spotted on a TLC plate (Amersham Corp.). The plate was developed with ethyl acetate/methylene chloride/glacial acetic acid (75:25:1) at 4° C. Radiolabeled products were quantitated with a radioactivity scanner (Bioscan, Inc., Washington, D.C.).
# (§2) conducted at room temperature for 3 hours. The cyclooxygenase reaction was
# (§3) initiated by the addition of 14C-arachidonic acid (50 μM) to the
# (§4) incubation mixtures at 37 C for 30 seconds.
# (§5) conducted at room temperature for 3 hours. The cyclooygenase reaction was
# (§6) initiated by the addition of ^14 C-arachidonic acid ([…]) to the
# (§7) incubation mixtures at 37° C. for 30 sec.
# ovine PGHS-1 = biological target: T2, ovine PGHS-1 (Ovis aries, UniProt P05979); experiment: Time- and concentration-dependent inhibition of ovine PGHS-1, TLC assay (3 h preincubation); assay type: biochemical; conditions: for inhibition of PGHS-1 (in words): table footnotes
# T2 construct: PGHS-1 was purified from sheep seminal vesicles as described earlier; tissue Oxford Biomedical Research, Inc. (supplier of the sheep seminal vesicles); host or cells: sheep seminal vesicles
# T2 sequence (P05979 25-600): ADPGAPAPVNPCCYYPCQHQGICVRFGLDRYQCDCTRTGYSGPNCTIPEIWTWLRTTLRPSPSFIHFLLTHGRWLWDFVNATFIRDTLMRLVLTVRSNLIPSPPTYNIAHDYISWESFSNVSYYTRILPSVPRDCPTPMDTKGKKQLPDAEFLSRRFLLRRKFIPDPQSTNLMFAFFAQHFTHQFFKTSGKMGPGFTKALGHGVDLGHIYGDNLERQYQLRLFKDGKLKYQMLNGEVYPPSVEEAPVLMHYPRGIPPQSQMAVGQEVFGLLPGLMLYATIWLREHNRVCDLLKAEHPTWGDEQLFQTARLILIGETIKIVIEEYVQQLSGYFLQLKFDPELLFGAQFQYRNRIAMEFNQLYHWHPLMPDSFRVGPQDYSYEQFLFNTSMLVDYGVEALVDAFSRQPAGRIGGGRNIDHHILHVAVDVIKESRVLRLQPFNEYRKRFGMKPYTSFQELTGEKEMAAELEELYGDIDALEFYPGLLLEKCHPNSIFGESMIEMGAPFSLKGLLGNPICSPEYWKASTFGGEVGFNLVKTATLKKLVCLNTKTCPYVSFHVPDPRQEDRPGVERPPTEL
# Method: as §1, §2, §3, §4, §5, §6, §7
# oCOX-1 = biological target: T3, oCOX-1 (Ovis aries, UniProt P05979); experiment: Time- and concentration-dependent inhibition of oCOX-1 (1 h incubation); assay type: biochemical, ovine
# T3 construct: PGHS-1 was purified from sheep seminal vesicles as described earlier; tissue Oxford Biomedical Research, Inc. (supplier of the sheep seminal vesicles); host or cells: sheep seminal vesicles
# T3 sequence (P05979 25-600): T2 sequence (P05979 25-600)
# Method: (§8) ^a IC50 values were determined by incubating several inhibitor
# (§9) concentrations in DMSO with purified hCOX-2 or oCOX-1 for 1 h at rt;
# (§10) assays were run in duplicate. IC50 values are average of duplicate
# (§11) determinations for each test compounds.
# hCOX-2 = biological target: T4, hCOX-2 (Homo sapiens, UniProt P35354); experiment: Time- and concentration-dependent inhibition of hCOX-2 (1 h incubation); assay type: biochemical
# T4 construct: made in house; host or cells: insect cells (baculovirus vectors)
# T4 sequence (P35354 18-604): T1 sequence (P35354 18-604)
# Method: as §8, §9, §10, §11
# [1] = Table 1, 3 h at room temperature, 50 μM 14C-arachidonic acid
# [2] = Table 1, 22 nM enzyme, 3 h at room temperature, 50 μM 14C-arachidonic acid
# [3] = Table 2, 3 h at room temperature
# [4] = Table 2, PGHS-1 22 nM, 3 h at room temperature
# [5] = Table 3, 1 h at rt, average of duplicates, read-out: IC50 oCOX-1
# [6] = Table 3, 1 h at rt, average of duplicates, read-out: IC50 hCOX-2
smiles,measurement,setting,value
CSc1ccccc1OC(=O)C(F)(F)F [Compound 6],inhibition at 100 µM,"human PGHS-2; FIG. 8, 0.1 mM",~35%
"CSc1ccccc1OC(=O)CCl [Compound 7, 2-(α-chloroacetoxy)thioanisole]",IC50,human PGHS-2; [1],360 µM
same,IC50,ovine PGHS-1; [2],0.39 mM
"CSc1ccccc1OC(=O)CBr [Compound 8, 2-(α-bromoacetoxy)thioanisole]",IC50,human PGHS-2; [1],510 µM
same,IC50,ovine PGHS-1; [2],0.32 mM
"CCCCCCCSc1ccccc1O [Compound 38, 2-Hydroxyphenylheptyl sulfide]",inhibition of cyclooxygenase activity of human holoPGHS-2 (in words),"human PGHS-2; FIG. 9, 3 h at room temperature",very little effect
same,inhibition of PGHS-2 (in words),human PGHS-2,did not inhibit
same,inhibition of PGHS-1 (in words),ovine PGHS-1,did not inhibit
"CCSc1ccccc1OC(C)=O [Compound 49, 2-Acetoxyphenylethyl sulfide]",IC50,human PGHS-2; [3],200 µM
same,IC50 (PGHS-1)/IC50 (PGHS-2),human PGHS-2; Table 2,1.8
same,IC50,ovine PGHS-1; [4],0.375 mM
"CCCSc1ccccc1OC(C)=O [Compound 50, 2-Acetoxyphenylpropyl sulfide]",IC50,human PGHS-2; [3],66 µM
same,IC50 (PGHS-1)/IC50 (PGHS-2),human PGHS-2; Table 2,1.0
same,IC50,ovine PGHS-1; [4],0.066 mM
"CC(=O)Oc1ccccc1SCC(C)C [Compound 51, 2-Acetoxyphenyl-2-methylpropyl sulfide]",IC50,human PGHS-2; [3],40 µM
same,IC50 (PGHS-1)/IC50 (PGHS-2),human PGHS-2; Table 2,1.2
same,IC50,ovine PGHS-1; [4],0.034 mM
"CCCCCCSc1ccccc1OC(C)=O [Compound 53, 2-Acetoxyphenylhexyl sulfide]",IC50,human PGHS-2; [3],3.5 µM
same,IC50 (PGHS-1)/IC50 (PGHS-2),human PGHS-2; Table 2,2.3
same,IC50,ovine PGHS-1; [4],0.008 mM
"CCCCCCCCSc1ccccc1OC(C)=O [Compound 55, 2-Acetoxyphenyloctyl sulfide]",IC50,human PGHS-2; [3],> 33 µM
same,IC50,ovine PGHS-1; [4],> 0.033 mM
"CCCCCCCCCSc1ccccc1OC(C)=O [Compound 56, 2-Acetoxyphenylnonyl sulfide]",IC50,human PGHS-2; [3],> 33 µM
same,IC50,ovine PGHS-1; [4],> 0.033 mM
"CC(=O)Oc1ccccc1SC1CCCCC1 [Compound 57, 2-Acetoxyphenylcyclohexyl sulfide]",IC50,human PGHS-2; [3],> 33 µM
same,IC50,ovine PGHS-1; [4],> 0.033 mM
"CC(=O)Oc1ccccc1SC1CCCCCC1 [Compound 58, 2-Acetoxyphenylcycloheptyl sulfide]",IC50,human PGHS-2; [3],> 33 µM
same,IC50,ovine PGHS-1; [4],> 0.033 mM
"CC(=O)Oc1ccccc1SCCc1ccccc1 [Compound 60, 2-Acetoxyphenyl-2-phenylethyl sulfide]",IC50,human PGHS-2; [1],100 µM
"CC(=O)Oc1ccccc1SCCCCCCCC(=O)O [Compound 63, 2-Acetoxyphenyl-8-carboxyheptyl sulfide]",IC50,"ovine PGHS-1; Table 1, cell printed in mM",> 1 mM
"CCCCOCCSc1ccccc1OC(C)=O [Compound 67, 2-Acetoxyphenyl-2-butoxyethyl sulfide]",inhibition of cyclooxygenase activity of human holoPGHS-2 (in words),"human PGHS-2; FIG. 11, 8 μM (compound 67)",greatly inhibited
same,IC50,human PGHS-2; [3],7 µM
same,IC50 (PGHS-1)/IC50 (PGHS-2),human PGHS-2; Table 2,3
same,IC50,ovine PGHS-1; [4],0.022 mM
"CCOCCCSc1ccccc1OC(C)=O [Compound 71, 2-Acetoxyphenyl-3-ethoxypropyl sulfide]",inhibition of cyclooxygenase activity of human holoPGHS-2 (in words),"human PGHS-2; FIG. 11, 8 μM (compound 67)",very little effect
same,IC50,human PGHS-2; [3],> 33 µM
same,IC50,ovine PGHS-1; [4],> 0.033 mM
"CCCC/C=C/CSc1ccccc1OC(C)=O [Compound 75, 2-Acetoxyphenyl-trans-hept-2-enyl sulfide]",IC50,ovine PGHS-1; [4],> 0.0165 mM
same,inhibition at 16.5 µM,ovine PGHS-1; at 16.5 μM,~25%
"CCCCC#CCSc1ccccc1O [Compound 82, 2-Hydroxyphenyl-hept-2-ynyl sulfide]",inhibition of cyclooxygenase activity of human holoPGHS-2 (in words),"human PGHS-2; FIGS. 12 and 13, 1-16 μM",very little effect
same,inhibition of PGHS-2 (in words),human PGHS-2,did not inhibit
same,inhibition of PGHS-1 (in words),ovine PGHS-1,did not inhibit
"CCCC#CCSc1ccccc1OC(C)=O [Compound 88, 2-Acetoxyphenylhex-2-ynyl sulfide]",inhibition of cyclooxygenase activity of human holoPGHS-2 (in words),"human PGHS-2; FIGS. 12 and 13, 1-16 μM",greatly inhibited
same,IC50,human PGHS-2; [3],3 µM
same,IC50 (PGHS-1)/IC50 (PGHS-2),human PGHS-2; Table 2,4.6
same,IC50,ovine PGHS-1; [4],0.014 mM
"CCC#CCSc1ccccc1OC(C)=O [Compound 89, 2-Acetoxyphenylpent-2-ynyl sulfide]",IC50,human PGHS-2; [3],5 µM
same,IC50 (PGHS-1)/IC50 (PGHS-2),human PGHS-2; Table 2,4
same,IC50,ovine PGHS-1; [4],0.02 mM
"CC#CCSc1ccccc1OC(C)=O [Compound 90, 2-Acetoxyphenyl-but-2-ynyl sulfide]",IC50 (PGHS-1)/IC50 (PGHS-2),human PGHS-2; Table 2,> 2
same,IC50,ovine PGHS-1; [4],> 0.035 mM
"C#CCSc1ccccc1OC(C)=O [Compound 91, 2-Acetoxyphenyl-prop-2-ynyl sulfide]",IC50,human PGHS-2; [3],25 µM
same,IC50 (PGHS-1)/IC50 (PGHS-2),human PGHS-2; Table 2,1.6
same,IC50,ovine PGHS-1; [4],0.04 mM
"CCCCCCCS(=O)(=O)c1ccccc1OC(C)=O [Compound 93, 2-Acetoxyphenylheptyl sulfone]",inhibition of PGHS-2 (in words),human PGHS-2,very poor inhibitor
same,inhibition of PGHS-1 (in words),ovine PGHS-1,very poor inhibitor
"CCCCCC#CCSc1ccccc1OC(C)=O [Compound 109, 2-Acetoxyphenyloct-2-ynyl sulfide]",IC50,oCOX-1; [5],33 µM
same,IC50,hCOX-2; [6],7 µM
"CCCCCCC#CCSc1ccccc1OC(C)=O [Compound 110, 2-Acetoxyphenylnon-2-ynyl sulfide]",IC50,oCOX-1; [5],50 µM
same,IC50,hCOX-2; [6],12.5 µM
"CCCCCCCC#CCSc1ccccc1OC(C)=O [Compound 111, 2-Acetoxyphenyldec-2-ynyl sulfide]",IC50,oCOX-1; [5],> 50 µM
same,IC50,hCOX-2; [6],16 µM
"CCCC#CCCSc1ccccc1OC(C)=O [Compound 115, 2-Acetoxyephenylhept-3-ynyl sulfide]",IC50,oCOX-1; [5],18 µM
same,IC50,hCOX-2; [6],6.5 µM
"CCCCC#CCSc1ccccc1OC(N)=O [Compound 122, 2-Carbamoyloxyphenylhept-2-ynyl sulfide]",IC50,oCOX-1,> 40 µM
same,IC50,hCOX-2,> 40 µM
"CCCCC#CCSc1ccccc1OC(=O)CBr [Compound 123, 2-(α-bromoacetoxy)phenylhept-2-ynyl sulfide]",IC50,oCOX-1; [5],20 µM
same,IC50,hCOX-2; [6],26 µM
"CCCCC#CCSc1ccccc1OS(C)(=O)=O [Compound 124, 2-Methylsulfonyloxyphenylhept-2-ynyl sulfide]",IC50,oCOX-1; [5],> 40 µM
same,IC50,hCOX-2; [6],> 40 µM
